From the NIST ThermoML archive (doi:10.1016/j.fluid.2014.06.024)
Numbers after ± are expanded uncertainties.

Test: molar heat capacity at constant pressure; xn = mol fraction of the nth substance listed
Details: 101 kPa, Liquid, Small sample (50 mg) DSC

C1CCOCC1 [tetrahydropyran] + Cc1ccccc1
molar heat capacity at constant pressure [J/K/mol]
Details | 298.15 K | 303.15 K | 308.15 K
x1 = 0.0937 | 157 ± 2.4 | 158.5 ± 2.5 | 160.08 ± 2.5
x1 = 0.1369 | 156.86 ± 2.4 | 158.39 ± 2.5 | 159.99 ± 2.5
x1 = 0.1932 | 156.64 ± 2.4 | 158.18 ± 2.5 | 159.81 ± 2.5
x1 = 0.2308 | 156.46 ± 2.4 | 158.01 ± 2.5 | 159.65 ± 2.5
x1 = 0.2894 | 156.15 ± 2.4 | 157.71 ± 2.4 | 159.37 ± 2.5
x1 = 0.3187 | 155.98 ± 2.4 | 157.54 ± 2.4 | 159.22 ± 2.5
x1 = 0.3507 | 155.79 ± 2.4 | 157.35 ± 2.4 | 159.04 ± 2.5
x1 = 0.3916 | 155.52 ± 2.4 | 157.09 ± 2.4 | 158.79 ± 2.5
x1 = 0.4206 | 155.32 ± 2.4 | 156.9 ± 2.4 | 158.61 ± 2.5
x1 = 0.4618 | 155.02 ± 2.4 | 156.61 ± 2.4 | 158.34 ± 2.5
x1 = 0.4906 | 154.81 ± 2.4 | 156.4 ± 2.4 | 158.14 ± 2.5
x1 = 0.5137 | 154.63 ± 2.4 | 156.23 ± 2.4 | 157.98 ± 2.5
x1 = 0.5517 | 154.32 ± 2.4 | 155.94 ± 2.4 | 157.71 ± 2.4
x1 = 0.5907 | 154 ± 2.4 | 155.62 ± 2.4 | 157.42 ± 2.4
x1 = 0.6208 | 153.74 ± 2.4 | 155.38 ± 2.4 | 157.19 ± 2.4
x1 = 0.6623 | 153.37 ± 2.4 | 155.02 ± 2.4 | 156.86 ± 2.4
x1 = 0.6987 | 153.03 ± 2.4 | 154.69 ± 2.4 | 156.55 ± 2.4
x1 = 0.7135 | 152.89 ± 2.4 | 154.56 ± 2.4 | 156.42 ± 2.4
x1 = 0.751 | 152.52 ± 2.4 | 154.2 ± 2.4 | 156.08 ± 2.4
x1 = 0.7917 | 152.1 ± 2.4 | 153.79 ± 2.4 | 155.68 ± 2.4
x1 = 0.8246 | 151.75 ± 2.4 | 153.44 ± 2.4 | 155.34 ± 2.4
x1 = 0.8516 | 151.45 ± 2.4 | 153.14 ± 2.4 | 155.05 ± 2.4
x1 = 0.8914 | 150.99 ± 2.3 | 152.67 ± 2.4 | 154.58 ± 2.4
x1 = 0.9123 | 150.74 ± 2.3 | 152.41 ± 2.4 | 154.32 ± 2.4
